Bridge positions count the residues as written; N and C are the ends. Square brackets hold non-standard residues; d marks the D form. Peptide text beside a SMILES is read from it. * marks the point of attachment. Phe(4-COOH) = N[C@@H](Cc1ccc(C(=O)O)cc1)C(=O)O; Bip = N[C@@H](Cc1ccc(-c2ccccc2)cc1)C(=O)O; Phe(3-CN) = N#Cc1cccc(C[C@H](N)C(=O)O)c1; Phe(3-Cl) = N[C@@H](Cc1cccc(Cl)c1)C(=O)O; Phe(3-OMe) = COc1cccc(C[C@H](N)C(=O)O)c1; Phe(3-Me) = Cc1cccc(C[C@H](N)C(=O)O)c1; 4Pal = N[C@@H](Cc1ccncc1)C(=O)O; Carboxymethyl = O=C(O)C*; NMeA = CN[C@@H](C)C(=O)O; Dab = NCC[C@H](N)C(=O)O; Dap = NC[C@H](N)C(=O)O
biological target: T1, PE-labeled human PD-L1-Ig binding to Jurkat cell line over-expressing human PD-1 (Jurkat-PD-1) (Homo sapiens, UniProt Q15116); assay: Jurkat-PD-1 Cell Binding High-Content Screening Assay (CBA): Method 1; conditions: Jurkat-hPD-1 cells, PE-labeled PD-L1-Ig 20 nM final; read-out: Jurkat HPDL1 PD1 IC50 (uM) (Method 1)
T1 construct: expressed in transfected cells; host or cells: Jurkat
T1 sequence (Q15116 25-288): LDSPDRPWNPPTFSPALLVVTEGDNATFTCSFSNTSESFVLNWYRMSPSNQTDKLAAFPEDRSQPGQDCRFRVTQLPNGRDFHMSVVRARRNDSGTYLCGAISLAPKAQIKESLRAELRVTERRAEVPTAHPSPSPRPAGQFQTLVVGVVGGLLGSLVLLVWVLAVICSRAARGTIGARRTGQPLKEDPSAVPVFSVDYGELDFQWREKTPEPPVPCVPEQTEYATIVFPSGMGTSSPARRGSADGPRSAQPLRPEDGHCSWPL

Row | SMILES | IC50 [µM]
1 | Cc1cccc(C[C@@H]2NC(=O)[C@H](CC(=O)O)NC(=O)[C@H](Cc3ccc(OCC(=O)O)cc3)NC(=O)[C@H](CN)NC(=O)CSC[C@@H](C(=O)N[C@@H](C)C(N)=O)NC(=O)[C@H]([C@@H](C)O)NC(=O)[C@H](C(C)C)NC(=O)[C@H](CC(C)C)NC(=O)[C@H](CCN)NC(=O)[C@@H](CC(C)C)NC(=O)[C@H](C)N(C)C(=O)[C@H](CCCNC(=N)N)NC(=O)[C@H](Cc3ccc(-c4ccccc4)cc3)NC(=O)[C@H](C(C)C)NC2=O)c1 [Compound 1456] ({CH2CO}-[Dap]Y(Carboxymethyl)D[Phe(3-Me)]V[Bip]R[NMeA][dL][Dab]LVTCA-NH2; thioether N-14) | 0.04
2 | CC(C)C[C@@H]1NC(=O)[C@H](CCN)NC(=O)[C@@H](CC(C)C)NC(=O)[C@H](C)N(C)C(=O)[C@H](CCCNC(=N)N)NC(=O)[C@H](Cc2ccc(-c3ccccc3)cc2)NC(=O)[C@H](C(C)C)NC(=O)[C@H](Cc2cccc(Cl)c2)NC(=O)[C@H](CC(=O)O)NC(=O)[C@H](Cc2ccc(OCC(=O)O)cc2)NC(=O)[C@H](CN)NC(=O)CSC[C@@H](C(=O)N[C@@H](C)C(N)=O)NC(=O)[C@H]([C@@H](C)O)NC(=O)[C@H](C(C)C)NC1=O [Compound 1458] ({CH2CO}-[Dap]Y(Carboxymethyl)D[Phe(3-Cl)]V[Bip]R[NMeA][dL][Dab]LVTCA-NH2; thioether N-14) | 0.04
3 | COc1cccc(C[C@@H]2NC(=O)[C@H](CC(=O)O)NC(=O)[C@H](Cc3ccc(C(=O)O)cc3)NC(=O)[C@H](CN)NC(=O)CSC[C@@H](C(=O)N[C@@H](C)C(N)=O)NC(=O)[C@H]([C@@H](C)O)NC(=O)[C@H](C(C)C)NC(=O)[C@H](CC(C)C)NC(=O)[C@H](CCN)NC(=O)[C@@H](CC(C)C)NC(=O)[C@H](C)N(C)C(=O)[C@H](CCCNC(=N)N)NC(=O)[C@H](Cc3ccc(-c4ccccc4)cc3)NC(=O)[C@H](C(C)C)NC2=O)c1 [Compound 1460] ({CH2CO}-[Dap][Phe(4-COOH)]D[Phe(3-OMe)]V[Bip]R[NMeA][dL][Dab]LVTCA-NH2; thioether N-14) | 0.02
4 | COc1cccc(C[C@@H]2NC(=O)[C@H](CC(=O)O)NC(=O)[C@H](Cc3cccc(C#N)c3)NC(=O)[C@H](Cc3ccncc3)NC(=O)CSC[C@@H](C(=O)N[C@@H](C)C(N)=O)NC(=O)[C@@H](CO)NC(=O)[C@H](C(C)C)NC(=O)[C@H](CC(C)C)NC(=O)[C@H](CC(N)=O)NC(=O)[C@@H](C)NC(=O)[C@H](C)N(C)C(=O)[C@H](C(C)C)NC(=O)[C@H](Cc3ccc(-c4ccccc4)cc3)NC(=O)[C@@H](CC(C)C)NC2=O)c1 [Compound 1462] ({CH2CO}-[4Pal][Phe(3-CN)]D[Phe(3-OMe)][dL][Bip]V[NMeA][dA]NLV[dS]CA-NH2; thioether N-14) | 0.01
5 | CC(C)C[C@@H]1NC(=O)[C@H](Cc2c[nH]c3ccccc23)NC(=O)[C@H](CC(=O)O)NC(=O)[C@H](Cc2ccc(O)cc2)NC(=O)[C@H](Cc2ccccc2)NC(=O)CSC[C@@H](C(=O)NCC(N)=O)NC(=O)[C@H]([C@@H](C)O)NC(=O)[C@H](C(C)C)NC(=O)[C@H](CC(C)C)NC(=O)[C@H](CC(N)=O)NC(=O)[C@@H](CC(C)C)NC(=O)[C@H](C)N(C)C(=O)[C@H](C(C)C)NC(=O)[C@H](Cc2ccc(-c3ccccc3)cc2)NC1=O [Compound 1466] ({CH2CO}-FYDWL[Bip]V[NMeA][dL]NLVTCG-NH2; thioether N-14) | 0.02

Second part, the compound after the results:

Row | IC50 [µM] | SMILES
6 | 0.08 | CC(C)C[C@@H]1NC(=O)[C@H](CCN)NC(=O)[C@@H](CC(C)C)NC(=O)[C@H](C)N(C)C(=O)[C@H](CCCNC(=N)N)NC(=O)[C@H](Cc2ccc(-c3ccccc3)cc2)NC(=O)[C@H](C(C)C)NC(=O)[C@H](Cc2c[nH]c3ccccc23)NC(=O)[C@H](CC(=O)O)NC(=O)[C@H](Cc2cccc(C#N)c2)NC(=O)[C@H](CN)NC(=O)CSC[C@@H](C(=O)N[C@@H](C)C(N)=O)NC(=O)[C@H]([C@@H](C)O)NC(=O)[C@H](C(C)C)NC1=O [Compound 1455] ({CH2CO}-[Dap][Phe(3-CN)]DWV[Bip]R[NMeA][dL][Dab]LVTCA-NH2; thioether N-14)
7 | 0.01 | Cc1cccc(C[C@@H]2NC(=O)[C@H](CC(=O)O)NC(=O)[C@H](Cc3ccc(C(=O)O)cc3)NC(=O)[C@H](CN)NC(=O)CSC[C@@H](C(=O)N[C@@H](C)C(N)=O)NC(=O)[C@H]([C@@H](C)O)NC(=O)[C@H](C(C)C)NC(=O)[C@H](CC(C)C)NC(=O)[C@H](CCN)NC(=O)[C@@H](CC(C)C)NC(=O)[C@H](C)N(C)C(=O)[C@H](CCCNC(=N)N)NC(=O)[C@H](Cc3ccc(-c4ccccc4)cc3)NC(=O)[C@H](C(C)C)NC2=O)c1 [Compound 1457] ({CH2CO}-[Dap][Phe(4-COOH)]D[Phe(3-Me)]V[Bip]R[NMeA][dL][Dab]LVTCA-NH2; thioether N-14)
8 | 0.04 | CC(C)C[C@@H]1NC(=O)[C@H](CCN)NC(=O)[C@@H](CC(C)C)NC(=O)[C@H](C)N(C)C(=O)[C@H](CCCNC(=N)N)NC(=O)[C@H](Cc2ccc(-c3ccccc3)cc2)NC(=O)[C@H](C(C)C)NC(=O)[C@H](Cc2cccc(Cl)c2)NC(=O)[C@H](CC(=O)O)NC(=O)[C@H](Cc2ccc(C(=O)O)cc2)NC(=O)[C@H](CN)NC(=O)CSC[C@@H](C(=O)N[C@@H](C)C(N)=O)NC(=O)[C@H]([C@@H](C)O)NC(=O)[C@H](C(C)C)NC1=O [Compound 1459] ({CH2CO}-[Dap][Phe(4-COOH)]D[Phe(3-Cl)]V[Bip]R[NMeA][dL][Dab]LVTCA-NH2; thioether N-14)
9 | 0.23 | CC(C)C[C@@H]1NC(=O)[C@H](CCN)NC(=O)[C@@H](CC(C)C)NC(=O)[C@H](C)N(C)C(=O)[C@H](CCCNC(=N)N)NC(=O)[C@H](Cc2ccc(-c3ccccc3)cc2)NC(=O)[C@H](C(C)C)NC(=O)[C@H](Cc2cccc(C#N)c2)NC(=O)[C@H](CC(=O)O)NC(=O)[C@H](Cc2ccc(C(=O)O)cc2)NC(=O)[C@H](CN)NC(=O)CSC[C@@H](C(=O)N[C@@H](C)C(N)=O)NC(=O)[C@H]([C@@H](C)O)NC(=O)[C@H](C(C)C)NC1=O [Compound 1461] ({CH2CO}-[Dap][Phe(4-COOH)]D[Phe(3-CN)]V[Bip]R[NMeA][dL][Dab]LVTCA-NH2; thioether N-14)
10 | 0.01 | COc1cccc(C[C@@H]2NC(=O)[C@H](CC(=O)O)NC(=O)[C@H](Cc3cccc(C)c3)NC(=O)[C@H](CN)NC(=O)CSC[C@@H](C(=O)N[C@@H](C)C(N)=O)NC(=O)[C@@H](CO)NC(=O)[C@H](C(C)C)NC(=O)[C@H](CC(C)C)NC(=O)[C@H](CC(N)=O)NC(=O)[C@@H](C)NC(=O)[C@H](C)N(C)C(=O)[C@H](C(C)C)NC(=O)[C@H](Cc3ccc(-c4ccccc4)cc3)NC(=O)[C@@H](CC(C)C)NC2=O)c1 [Compound 1464] ({CH2CO}-[Dap][Phe(3-Me)]D[Phe(3-OMe)][dL][Bip]V[NMeA][dA]NLV[dS]CA-NH2; thioether N-14)
11 | 0.02 | CC(C)C[C@@H]1NC(=O)[C@H](Cc2c[nH]c3ccccc23)NC(=O)[C@H](CC(=O)O)NC(=O)[C@H](Cc2ccc(O)cc2)NC(=O)[C@H](Cc2ccccc2)NC(=O)CSC[C@@H](C(=O)N[C@@H](C)C(N)=O)NC(=O)[C@H]([C@@H](C)O)NC(=O)[C@H](C(C)C)NC(=O)[C@H](CC(C)C)NC(=O)[C@H](CC(N)=O)NC(=O)[C@@H](CC(C)C)NC(=O)[C@H](C)N(C)C(=O)[C@H](C(C)C)NC(=O)[C@H](Cc2ccc(-c3ccccc3)cc2)NC1=O [Compound 1467] ({CH2CO}-FYDWL[Bip]V[NMeA][dL]NLVTCA-NH2; thioether N-14)

Source: patent US20240409585A1, “MACROCYCLIC IMMUNOMODULATORS” (priority 2021, published 2024)
